Measured values as given in patent publication US20080312435A1, “Imine Compound” (TAISHO PHARMACEUTICAL CO., LTD., priority 2004, published 2008).
pIC50: −log10 of the molar value.

How the values were obtained:
human CB1 receptor = target: T1, human CB1 receptor (Homo sapiens, UniProt P21554); assay: Human CB1 receptor binding inhibition test; conditions: CHO-DHFR(−) cells stably expressing human CB1 receptor, same manner as Experimental Example 1
T1 construct: expressed in transfected cells
Method: Human CB1 Receptor Binding Inhibition Test
The CHO-DHFR(−) cells capable of stably expressing a CB1 receptor were prepared in the same manner as in Experimental Example 1. The binding test to the human CB1 receptor was performed to obtain 50% inhibitory concentration (IC50 value) of a test compound.

human CB2 receptor = target: T2, human CB2 receptor (Homo sapiens, UniProt P34972); assay: Human CB2 receptor binding inhibition test ([3H]CP-55,940, CHO membrane fractions); conditions: [3H]CP-55,940, membrane fractions of CHO cells stably expressing human CB2 receptor, 25° C., 2 hours; read-out: CB2 IC50 (Inhibition of binding to human CB2 receptor)
T2 construct: expressed in transfected cells
In short: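 Membranes from CHO-DHFR(−) cells stably expressing human CB2 used for [3H]CP-55,940 binding; filter-bound radioactivity counted by scintillation after washes with 0.1% BSA buffer. Nonspecific binding defined with 2.0 μM CP-55,940; IC50 for inhibition of specific binding.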

T1 sequence (P21554 whole entry): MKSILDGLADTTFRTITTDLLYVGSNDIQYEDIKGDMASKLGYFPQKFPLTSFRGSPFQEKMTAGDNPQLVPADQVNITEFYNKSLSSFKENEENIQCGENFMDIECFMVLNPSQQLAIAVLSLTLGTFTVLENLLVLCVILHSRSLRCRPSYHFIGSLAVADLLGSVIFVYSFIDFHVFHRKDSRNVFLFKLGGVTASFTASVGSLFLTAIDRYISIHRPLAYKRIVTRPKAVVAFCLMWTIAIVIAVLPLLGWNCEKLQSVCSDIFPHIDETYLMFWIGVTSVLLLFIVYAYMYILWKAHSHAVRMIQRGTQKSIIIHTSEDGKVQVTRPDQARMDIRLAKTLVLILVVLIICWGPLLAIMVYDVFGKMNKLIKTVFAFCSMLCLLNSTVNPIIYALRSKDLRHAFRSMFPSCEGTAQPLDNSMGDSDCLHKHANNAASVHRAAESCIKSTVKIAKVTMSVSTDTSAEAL
T2 sequence (P34972 whole entry): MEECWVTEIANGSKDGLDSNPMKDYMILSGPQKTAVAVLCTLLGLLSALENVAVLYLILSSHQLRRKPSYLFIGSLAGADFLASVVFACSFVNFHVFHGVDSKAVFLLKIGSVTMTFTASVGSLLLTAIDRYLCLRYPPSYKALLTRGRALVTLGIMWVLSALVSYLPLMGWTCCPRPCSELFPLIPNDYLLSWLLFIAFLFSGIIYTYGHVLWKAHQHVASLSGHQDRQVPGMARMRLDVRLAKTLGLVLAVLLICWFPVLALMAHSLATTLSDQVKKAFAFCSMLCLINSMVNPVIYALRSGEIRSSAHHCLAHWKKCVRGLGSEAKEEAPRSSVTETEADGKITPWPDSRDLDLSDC

Structure (SMILES)	pIC50 (human CB1 receptor)	pIC50 (human CB2 receptor)	melting point
Cc1ccccc1C(=O)/N=c1\sc(C(C)(C)C)c(C)n1CC1CC1 [compound 180]	6.40	9.00	–
Cc1c(C(C)(C)C)s/c(=N\C(=O)c2ccccc2Cl)n1CC1CC1 [compound 186]	6.57	8.77	–
Cc1c(C(C)(C)C)s/c(=N\C(=O)c2ccccc2Br)n1CC1CC1 [compound 189]	6.67	8.82	–
Cc1c(C(C)(C)C)s/c(=N\C(=O)c2ccccc2I)n1CC1CC1 [compound 191]	6.71	9.15	–
Cc1c(C(C)(C)C)s/c(=N\C(=O)c2ccccc2N2CCOCC2)n1CC1CC1 [compound 206]	6.34	8.24	–
COc1ccc(C(=O)/N=c2\sc(C(C)(C)C)c(C)n2CC2CC2)c(OC)c1 [compound 236]	6.67	8.70	–
Cc1c(C(C)(C)C)s/c(=N\C(=O)c2ccc(F)c(F)c2F)n1CC1CC1 [compound 282]	–	7.84	82 to 84 °C
Cc1c(C(C)(C)C)s/c(=N\C(=O)c2cc(F)c(F)cc2F)n1CC1CC1 [compound 283]	–	8.23	78 to 79 °C
Cc1c(C(C)(C)C)s/c(=N\C(=O)c2cc(F)c(F)cc2Cl)n1CC1CC1 [compound 284]	–	8.92	112 to 114 °C
Cc1c(C(C)(C)C)s/c(=N\C(=O)c2ccc(F)c(Cl)c2F)n1CC1CC1 [compound 285]	–	7.85	76 to 77 °C
Cc1ccc(C(=O)/N=c2\sc(C(C)(C)C)c(C)n2CC2CC2)c(F)c1F [compound 287]	–	7.87	122 to 124 °C
Cc1cccnc1C(=O)/N=c1\sc(C(C)(C)C)c(C)n1CC1CC1 [compound 293]	–	8.15	88 to 89 °C
Cc1ncccc1C(=O)/N=c1/sc(C(C)(C)C)c(C)n1CC1CC1 [compound 295]	6.30	7.91	–
Cc1c(C(C)(C)C)s/c(=N/C(=O)c2cnccc2C(F)(F)F)n1CC1CC1 [compound 298]	–	8.82	74 to 76 °C
Cc1c(C(C)(C)C)s/c(=N/C(=O)c2cccnc2F)n1CC1CC1 [compound 300]	–	7.82	83 to 84 °C
Cc1c(C(C)(C)C)s/c(=N\C(=O)c2nccnc2Cl)n1CC1CC1 [compound 305]	–	8.43	115 to 116 °C
Cc1c(C(C)(C)C)s/c(=N\C(=O)c2cc(Cl)ncc2Cl)n1CC1CC1 [compound 307]	–	9.00	110 to 112 °C
CCOc1ncccc1C(=O)/N=c1\sc(C(C)(C)C)c(C)n1CC1CC1 [compound 310]	–	7.76	102 to 104 °C
CSc1ncccc1C(=O)/N=c1\sc(C(C)(C)C)c(C)n1CC1CC1 [compound 312]	–	7.85	138 to 139 °C
Cc1nc(F)ccc1C(=O)/N=c1\sc(C(C)(C)C)c(C)n1CC1CC1 [compound 316]	–	8.28	67 to 69 °C
Cc1c(C(C)(C)C)s/c(=N\C(=O)c2ccc([N+](=O)[O-])o2)n1CC1CC1 [compound 319]	–	7.73	129 to 130 °C
Cc1c(C(C)(C)C)s/c(=N\C(=O)c2ccc3nonc3c2)n1CC1CC1 [compound 320]	–	8.21	139 to 141 °C
Cc1c(C(C)(C)C)s/c(=N\C(=O)c2cccc3cnccc23)n1CC1CC1 [compound 321]	–	8.64	109 to 110 °C
Cc1c(C(C)(C)C)s/c(=N\C(=O)c2cccc3cccnc23)n1CC1CC1 [compound 322]	–	8.25	193 to 195 °C

Structure (SMILES)	pIC50 (human CB1 receptor)	pIC50 (human CB2 receptor)	melting point
Cc1c(C(C)(C)C)s/c(=N\C(=O)c2nccc3ccccc23)n1CC1CC1 [compound 324]	6.45	8.70	–
Cc1c(C(C)(C)C)s/c(=N\C(=O)c2cnnc3ccccc23)n1CC1CC1 [compound 325]	–	7.89	140 to 141 °C
Cc1c(C(C)(C)C)s/c(=N\C(=O)c2cc3sccc3nc2C(F)(F)F)n1CC1CC1 [compound 328]	–	7.93	147 to 149 °C
Cc1c(C(C)(C)C)s/c(=N\C(=O)C(C)(C)C)n1CC1CC1 [compound 330]	–	7.86	102 to 104 °C
Cc1c(C(C)(C)C)s/c(=N\C(=O)CCC(F)(F)F)n1CC1CC1 [compound 335]	–	8.26	102 to 103 °C
Cc1c(C(C)(C)C)s/c(=N\C(=O)C(F)(F)C(F)(F)C(F)(F)F)n1CC1CC1 [compound 336]	–	8.54	147 to 148 °C
COCCn1c(C)c(C(C)(C)C)s/c1=N\C(=O)C(F)(F)C(F)(F)C(F)(F)F [compound 338]	–	8.04	69 to 71 °C
CC(=O)OC(C(=O)/N=c1\sc(C(C)(C)C)c(C)n1CC1CC1)c1ccccc1 (stereo not shown) [compound 341]	–	8.28	147 to 148 °C
COCCn1c(C)c(C(C)(C)C)s/c1=N\C(=O)c1cccc(C(F)(F)F)c1 [compound 344]	–	7.91	172 to 173 °C
COCCn1c(C)c(C(C)(C)C)s/c1=N\C(=O)c1cccc(Br)c1 [compound 345]	–	7.90	89 to 91 °C
COCCn1c(C)c(C(C)(C)C)s/c1=N\C(=O)c1cccc(I)c1 [compound 346]	–	7.87	119 to 121 °C
COCCn1c(C)c(C(C)(C)C)s/c1=N\C(=O)c1cc(Br)ccc1F [compound 348]	–	8.42	95 to 97 °C
COCCn1c(C)c(C(C)(C)C)s/c1=N\C(=O)c1cc(F)c(Cl)cc1Cl [compound 349]	–	8.72	161 to 163 °C
COCCn1c(C)c(C(C)(C)C)s/c1=N\C(=O)c1cccc(OC(F)(F)C(F)F)c1 [compound 350]	–	8.28	114 to 116 °C
COCCn1c(C)c(C(C)(C)C)s/c1=N\C(=O)c1cc(F)ccc1C [compound 351]	–	8.66	106 to 107 °C
Cc1c(Cl)s/c(=N\C(=O)c2cccc(C(F)(F)F)c2F)n1CC1CC1 [compound 365]	–	8.47	130 to 132 °C
O=C(/N=c1\sc2ncccc2n1CC1CC1)c1cccc(C(F)(F)F)c1F [compound 382]	–	7.77	156 to 158 °C
Cn1c(C(C)(C)C)c/c(=N\C(=O)c2cccc(Cl)c2Cl)n1CC1CCC1 [compound 481]	–	8.47	152.5 to 154 °C
Cc1c(C(=O)/N=c2\cc(C(C)(C)C)n(C)n2CC2CCC2)cccc1C(F)(F)F [compound 483]	–	8.08	133 to 134 °C
Cn1c(C(C)(C)C)c/c(=N\C(=O)c2cccc(Cl)c2Cl)n1CC1CCCC1 [compound 484]	–	8.57	168 to 169 °C
CCOCCn1/c(=N/C(=O)c2cccc(C(F)(F)F)c2C)cc(C(C)(C)C)n1C [compound 489]	–	8.22	132 to 133 °C
COc1ccc(C(F)(F)F)cc1C(=O)/N=c1\sc(C(C)(C)C)nn1CC1CC1 [compound 509]	–	8.23	82 to 83 °C
CC(C)(C)c1nn(CC2CC2)/c(=N/C(=O)c2cccc(C(F)(F)F)c2F)o1 [compound 514]	–	8.59	108 to 110 °C
